Legend:
Assay type in all cases: cell-based
BRAF V600E = molecular target: T1, BRAF V600E (Homo sapiens, UniProt P15056, V600E); experiment: BRAF HiBiT degradation assay, C-terminal HiBiT-tagged BRAF V600E A375 cells (clone 1F10), Nano-Glo HiBiT Lytic assay; details: A375 (BRAF V600E, Class 1); for DC50: DC50 at 50% degradation; for Dmax: A-375, observed Dmax, % protein degraded relative to DMSO control
T1 construct: endogenous C-terminal HiBiT fusion tag on BRAF V600E allele; endogenous in cells; host or cells: A375 clone 1F10 (CRISPR-Cas9 knock-in of the HiBiT tag; parental A375 from ATCC)
Procedure, shortened: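 Degradation is measured as loss of HiBiT signal from BRAF V600E tagged at its native locus in A375 cells. Doses span 1 μM to 0.01 nM in half-log steps, in duplicate. Percent remaining is calculated against DMSO controls after subtracting untagged A375 background, and curve fitting yields DC50 and observed Dmax.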

BRAF G466V = molecular target: T2, BRAF G466V (Homo sapiens, UniProt P15056, G466V); experiment: BRAF HiBiT degradation assay, C-terminal HiBiT-tagged BRAF G466V overexpressed in HCT-116 BRAF−/− cells (clone 8), Nano-Glo HiBiT Lytic assay; details: BRAF G466V (Class 3), HCT-116 BRAF−/− cells; for DC50: DC50 at 50% degradation; for Dmax: observed Dmax relative to DMSO control
T2 construct: Horizon Discovery (HCT-116 BRAF−/− cells); host or cells: HCT-116 BRAF−/− cells, clone 8, lentiviral transduction
Procedure, shortened: (§1)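 First, the stable HiBiT-tagged cells were plated and incubated for 24 h. Next, compound was added in duplicate as an 11-point series with a 1 μM top concentration. Lytic detection followed, with DMSO-treated parental cells used for background. Finally, DC50 and Obs. Dmax relative to DMSO were derived from the % protein remaining curves.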

BRAF G469A = molecular target: T3, BRAF G469A (Homo sapiens, UniProt P15056, G469A); experiment: BRAF HiBiT degradation assay, C-terminal HiBiT-tagged BRAF G469A overexpressed in HCT-116 BRAF−/− cells (clone 34), Nano-Glo HiBiT Lytic assay; details: BRAF G469A (Class 2), HCT-116 BRAF−/− cells; for DC50: DC50 at 50% degradation; for Dmax: observed Dmax relative to DMSO control
T3 construct: Horizon Discovery (HCT-116 BRAF−/− cells); host or cells: HCT-116 BRAF−/− cells, clone 34, lentiviral transduction
Procedure, shortened: as §1

BRAF D594G = molecular target: T4, BRAF D594G (Homo sapiens, UniProt P15056, D594G); experiment: BRAF HiBiT degradation assay, C-terminal HiBiT-tagged BRAF D594G overexpressed in HCT-116 BRAF−/− cells (clone 63), Nano-Glo HiBiT Lytic assay; details: BRAF D594G (Class 3), HCT-116 BRAF−/− cells; for DC50: DC50 at 50% degradation; for Dmax: observed Dmax relative to DMSO control
T4 construct: Horizon Discovery (HCT-116 BRAF−/− cells); host or cells: HCT-116 BRAF−/− cells, clone 63, lentiviral transduction
Procedure, shortened: as §1

T4 sequence (P15056 whole entry D594G): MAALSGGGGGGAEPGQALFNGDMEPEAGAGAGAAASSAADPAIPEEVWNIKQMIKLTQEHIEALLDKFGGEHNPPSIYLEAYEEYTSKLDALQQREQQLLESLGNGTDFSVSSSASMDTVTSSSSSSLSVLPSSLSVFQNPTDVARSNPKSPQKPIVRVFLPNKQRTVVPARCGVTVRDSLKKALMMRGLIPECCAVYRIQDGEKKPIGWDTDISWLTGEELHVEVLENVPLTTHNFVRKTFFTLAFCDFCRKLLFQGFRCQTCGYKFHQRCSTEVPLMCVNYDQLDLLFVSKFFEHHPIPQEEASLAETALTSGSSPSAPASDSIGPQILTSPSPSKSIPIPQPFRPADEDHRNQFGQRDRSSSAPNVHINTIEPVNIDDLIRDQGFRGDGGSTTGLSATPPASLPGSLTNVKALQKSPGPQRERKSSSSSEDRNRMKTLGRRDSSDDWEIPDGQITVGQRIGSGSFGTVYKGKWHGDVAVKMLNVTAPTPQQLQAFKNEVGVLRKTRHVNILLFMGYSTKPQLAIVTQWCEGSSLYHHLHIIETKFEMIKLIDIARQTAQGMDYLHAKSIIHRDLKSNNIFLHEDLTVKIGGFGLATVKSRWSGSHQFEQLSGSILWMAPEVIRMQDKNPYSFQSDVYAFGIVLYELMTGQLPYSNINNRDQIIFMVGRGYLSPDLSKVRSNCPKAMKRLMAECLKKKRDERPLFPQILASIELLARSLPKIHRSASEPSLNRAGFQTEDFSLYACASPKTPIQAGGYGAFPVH
T1 sequence (P15056 whole entry V600E, the tested form may be a part): as the sequence (P15056 whole entry D594G) above, with G594D, V600E counted along it
T2 sequence (P15056 whole entry G466V): as the sequence (P15056 whole entry D594G) above, with G466V, G594D counted along it
T3 sequence (P15056 whole entry G469A): as the sequence (P15056 whole entry D594G) above, with G469A, G594D counted along it

SMILES | DC50 (BRAF V600E) [µM] | Dmax (BRAF V600E) [%] | DC50 (BRAF G466V) [µM] | Dmax (BRAF G466V) [%] | DC50 (BRAF G469A) [µM] | Dmax (BRAF G469A) [%] | DC50 (BRAF D594G) [µM] | Dmax (BRAF D594G) [%]
CCCS(=O)(=O)Nc1cccc(-c2nc(C3CCC4(CC3)CCN(C[C@H]3CC[C@H](Oc5ccc(C6CCC(=O)NC6=O)cn5)CC3)CC4)sc2-c2ccnc(N)n2)c1F (mixture of isomers) [Compound 257, N-{3-[5-(2-aminopyrimidin-4-yl)-2-(3-{[(1r,4r)-4-({5-[(3RS)-2,6-dioxopiperidin-3-yl]pyridin-2-yl}oxy)cyclohexyl]methyl}-3-azaspiro[5.5]undecan-9-yl)-1,3-thiazol-4-yl]-2-fluorophenyl}propane-1-sulfonamide] | 0.01 to 0.05 | > 70 | > 0.5 | < 30 | > 0.5 | < 30 | > 0.5 | < 30
CCCS(=O)(=O)Nc1cccc(-c2nc(C3CCC4(CC3)CCN(CC3CCN(c5ccc6c(c5)CN(C5CCC(=O)NC5=O)C6=O)CC3)CC4)sc2-c2ccnc(N)n2)c1F (racemic) [Compound 258, Rac-N-{3-[5-(2-aminopyrimidin-4-yl)-2-{3-[(1-{2-[(3R)-2,6-dioxopiperidin-3-yl]-1-oxo-2,3-dihydro-1H-isoindol-5-yl}piperidin-4-yl)methyl]-3-azaspiro[5.5]undecan-9-yl}-1,3-thiazol-4-yl]-2-fluorophenyl}propane-1-sulfonamide] | < 0.01 | 30 to 70 | > 0.5 | 30 to 70 | > 0.5 | < 30 | > 0.5 | < 30
CCCS(=O)(=O)Nc1cccc(-c2nc(C3CCC4(CC3)CCN(CC3CCN(c5ccc(C6CCC(=O)NC6=O)cn5)CC3)CC4)sc2-c2ccnc(N)n2)c1F (racemic) [Compound 260, Rac-N-{3-[5-(2-aminopyrimidin-4-yl)-2-{3-[(1-{5-[(3R)-2,6-dioxopiperidin-3-yl]pyridin-2-yl}piperidin-4-yl)methyl]-3-azaspiro[5.5]undecan-9-yl}-1,3-thiazol-4-yl]-2-fluorophenyl}propane-1-sulfonamide] | 0.01 to 0.05 | 30 to 70 | > 0.5 | < 30 | > 0.5 | < 30 | > 0.5 | < 30
CCCS(=O)(=O)Nc1cccc(-c2nc(C3CCN(C(=O)C4CCN(CC5CCN(c6ccc(C7CCC(=O)NC7=O)cn6)CC5)CC4)CC3)sc2-c2ccnc(N)n2)c1F (racemic) [Compound 261, Rac-N-{3-[5-(2-aminopyrimidin-4-yl)-2-(1-{1-[(1-{5-[(3R)-2,6-dioxopiperidin-3-yl]pyridin-2-yl}piperidin-4-yl)methyl]piperidine-4-carbonyl}piperidin-4-yl)-1,3-thiazol-4-yl]-2-fluorophenyl}propane-1-sulfonamide] | < 0.01 | > 70 | 0.05 to 0.5 | 30 to 70 | > 0.5 | 30 to 70 | > 0.5 | 30 to 70
O=C1CCC(N2C(=O)c3ccc(N4CC(CN5CC(c6ccc(-n7cc(-c8ccc9c(c8)CC/C9=N/O)c(-c8ccncc8)n7)cc6)C5)C4)cc3C2=O)C(=O)N1 (racemic) [Compound 262, Rac-2-[(3R)-2,6-dioxopiperidin-3-yl]-5-(3-{[3-(4-{4-[(1Z)-1-(hydroxyimino)-2,3-dihydro-1H-inden-5-yl]-3-(pyridin-4-yl)-1H-pyrazol-1-yl}phenyl)azetidin-1-yl]methyl}azetidin-1-yl)-2,3-dihydro-1H-isoindole-1,3-dione] | < 0.01 | > 70 | > 0.5 | < 30 | > 0.5 | < 30 | > 0.5 | < 30
O=C1CCC(c2ccc(N3CCC(CN4CCN(c5ccc(-n6cc(-c7cc(Cl)cc(NS(=O)(=O)N8CCCC8)c7F)c(-c7ccncc7)n6)cc5)CC4)CC3)nc2)C(=O)N1 (racemic) [Compound 265, Rac-(R)—N-(5-chloro-3-(1-(4-(4-((1-(5-(2,6-dioxopiperidin-3-yl)pyridin-2-yl)piperidin-4-yl)methyl)piperazin-1-yl)phenyl)-3-(pyridin-4-yl)-1H-pyrazol-4-yl)-2-fluorophenyl)pyrrolidine-1-sulfonamide] | < 0.01 | > 70 | < 0.01 | > 70 | < 0.01 | > 70 | < 0.01 | > 70
O=C1CCC(c2ccc(N3CCC(CN4CCN(c5ccc(-n6cc(-c7cc(Cl)cc(NS(=O)(=O)N8CCCC8)c7F)c(-c7ccncc7)n6)c(F)c5)CC4)CC3)nc2)C(=O)N1 (racemic) [Compound 266, Rac-(R)—N-(5-chloro-3-(1-(4-(4-((1-(5-(2,6-dioxopiperidin-3-yl)pyridin-2-yl)piperidin-4-yl)methyl)piperazin-1-yl)-2-fluorophenyl)-3-(pyridin-4-yl)-1H-pyrazol-4-yl)-2-fluorophenyl)pyrrolidine-1-sulfonamide] | < 0.01 | > 70 | < 0.01 | > 70 | 0.01 to 0.05 | > 70 | < 0.01 | 30 to 70
O=C1CCC(c2ccc(N3CCC(CN4CCN(c5ccc(-n6cc(-c7cc(F)cc(NS(=O)(=O)N8CCCC8)c7F)c(-c7ccncc7)n6)cc5)CC4)CC3)nc2)C(=O)N1 (racemic) [Compound 267, Rac-(R)—N-(3-(1-(4-(4-((1-(5-(2,6-dioxopiperidin-3-yl)pyridin-2-yl)piperidin-4-yl)methyl)piperazin-1-yl)phenyl)-3-(pyridin-4-yl)-1H-pyrazol-4-yl)-2,5-difluorophenyl)pyrrolidine-1-sulfonamide] | < 0.01 | > 70 | < 0.01 | > 70 | 0.01 to 0.05 | > 70 | < 0.01 | > 70
O=C1CCC(c2ccc(N3CCC(F)(CN4CCN(c5ccc(-n6cc(-c7cc(Cl)cc(NS(=O)(=O)N8CCCC8)c7F)c(-c7ccncc7)n6)cc5)CC4)CC3)cc2)C(=O)N1 (racemic) [Compound 284, Rac-N-{5-chloro-3-[1-(4-{4-[(1-{4-[(3R)-2,6-dioxopiperidin-3-yl]phenyl}-4-fluoropiperidin-4-yl)methyl]piperazin-1-yl}phenyl)-3-(pyridin-4-yl)-1H-pyrazol-4-yl]-2-fluorophenyl}pyrrolidine-1-sulfonamide] | 0.01 to 0.05 | > 70 | < 0.01 | > 70 | 0.01 to 0.05 | > 70 | < 0.01 | > 70
O=C1CCC(c2ccc(N3CCC(CN4CCN(c5ccc(-n6cc(-c7cc(Cl)cc(NS(=O)(=O)N8CCCC8)c7F)c(-c7ccncc7)n6)nc5)CC4)CC3)nc2)C(=O)N1 (racemic) [Compound 288, Rac-N-{5-chloro-3-[1-(5-{4-[(1-{5-[(3R)-2,6-dioxopiperidin-3-yl]pyridin-2-yl}piperidin-4-yl)methyl]piperazin-1-yl}pyridin-2-yl)-3-(pyridin-4-yl)-1H-pyrazol-4-yl]-2-fluorophenyl}pyrrolidine-1-sulfonamide] | < 0.01 | > 70 | < 0.01 | > 70 | < 0.01 | > 70 | < 0.01 | > 70
CCN(C)S(=O)(=O)Nc1cc(Cl)cc(-c2cn(-c3ccc(N4CCN(CC5CCN(c6ccc(C7CCC(=O)NC7=O)cn6)CC5)CC4)cc3)nc2-c2ccncc2)c1F (racemic) [Compound 308, Rac-(3R)-3-(6-{4-[(4-{4-[4-(5-chloro-3-{[ethyl(methyl)sulfamoyl]amino}-2-fluorophenyl)-3-(pyridin-4-yl)-1H-pyrazol-1-yl]phenyl}piperazin-1-yl)methyl]piperidin-1-yl}pyridin-3-yl)piperidine-2,6-dione] | < 0.01 | > 70 | < 0.01 | > 70 | 0.01 to 0.05 | > 70 | < 0.01 | > 70

— patent US20260317324A1, “BIFUNCTIONAL COMPOUNDS FOR DEGRADING BRAF VIA UBIQUITIN PROTEOSOME PATHWAY” (Nurix Therapeutics, Inc., priority 2023, published 2026)
